Assay results reported in the NIST ThermoML archive (doi:10.1021/acs.jced.9b00334).
Numbers after ± are expanded uncertainties.

Conditions: Liquid, Vibrating tube method

CCCCn1cc[n+](C)c1.CCCCn1cc[n+](C)c1.[Co+2].[N-]=C=S.[N-]=C=S.[N-]=C=S.[N-]=C=S [bis(1-butyl-3-methylimidazolium) tetrathiocyanatocobaltate]
mass density [kg/m3]
Conditions	283.16 K	293.13 K	303.17 K	313.17 K	323.18 K	333.15 K	343.14 K	353.13 K	363.14 K
100 kPa	1233.1 ± 1.4	1226.4 ± 1.3	1219.6 ± 1.3	1212.6 ± 1.3	1205.8 ± 1.3	1199 ± 1.3	1192.4 ± 1.3	1185.8 ± 1.2	1179.2 ± 1.2
1000 kPa	1233.5 ± 1.4	1226.9 ± 1.3	1220.1 ± 1.3	1213.2 ± 1.3	1206.3 ± 1.3	1199.5 ± 1.3	1192.9 ± 1.3	1186.3 ± 1.3	1179.8 ± 1.2
2000 kPa	1233.9 ± 1.4	1227.4 ± 1.4	1220.5 ± 1.3	1213.6 ± 1.3	1206.8 ± 1.3	1200.1 ± 1.3	1193.5 ± 1.3	1186.9 ± 1.3	1180.3 ± 1.2
5000 kPa	1235.3 ± 1.4	1228.9 ± 1.4	1222.1 ± 1.4	1215.2 ± 1.4	1208.3 ± 1.3	1201.8 ± 1.3	1195.1 ± 1.3	1188.6 ± 1.3	1182 ± 1.3
7000 kPa	1236.2 ± 1.4	1229.7 ± 1.4	1222.9 ± 1.4	1216.2 ± 1.4	1209.4 ± 1.4	1202.7 ± 1.3	1196.2 ± 1.3	1189.6 ± 1.3	1183.2 ± 1.3
10000 kPa	1237.6 ± 1.5	1231.1 ± 1.4	1224.3 ± 1.4	1217.7 ± 1.4	1210.8 ± 1.4	1204.2 ± 1.4	1197.7 ± 1.3	1191.2 ± 1.3	1184.8 ± 1.3
15000 kPa	1239.8 ± 1.5	1233.5 ± 1.5	1226.8 ± 1.5	1220.1 ± 1.5	1213.3 ± 1.4	1206.7 ± 1.4	1200.4 ± 1.4	1193.8 ± 1.4	1187.5 ± 1.4
20000 kPa	1241.9 ± 1.6	1235.6 ± 1.5	1229.1 ± 1.5	1222.5 ± 1.5	1215.8 ± 1.5	1209.2 ± 1.5	1202.8 ± 1.4	1196.5 ± 1.4	1190 ± 1.4
25000 kPa	1244 ± 1.6	1237.6 ± 1.6	1231.3 ± 1.6	1224.8 ± 1.6	1218.1 ± 1.5	1211.6 ± 1.5	1205.1 ± 1.5	1198.9 ± 1.5	1192.6 ± 1.4
30000 kPa	1245.9 ± 1.7	1239.7 ± 1.6	1233.5 ± 1.6	1226.9 ± 1.6	1220.5 ± 1.6	1213.9 ± 1.6	1207.5 ± 1.5	1201.3 ± 1.5	1195 ± 1.5
35000 kPa	1248 ± 1.7	1241.8 ± 1.7	1235.6 ± 1.7	1229.1 ± 1.7	1222.8 ± 1.6	1216.2 ± 1.6	1209.8 ± 1.6	1203.6 ± 1.6	1197.4 ± 1.5
40000 kPa	1250.1 ± 1.8	1243.8 ± 1.8	1237.7 ± 1.7	1231.3 ± 1.7	1224.9 ± 1.7	1218.3 ± 1.7	1212.2 ± 1.6	1205.9 ± 1.6	1199.9 ± 1.6
45000 kPa	1251.9 ± 1.8	1245.9 ± 1.8	1239.7 ± 1.8	1233.3 ± 1.8	1227 ± 1.7	1220.5 ± 1.7	1214.4 ± 1.7	1208.1 ± 1.7	1202.2 ± 1.6
50000 kPa	1253.9 ± 1.9	1248 ± 1.9	1241.7 ± 1.8	1235.3 ± 1.8	1229.1 ± 1.8	1222.8 ± 1.8	1216.4 ± 1.7	1210.5 ± 1.7	1204.5 ± 1.7
55000 kPa	1255.8 ± 2	1250 ± 1.9	1243.6 ± 1.9	1237.4 ± 1.9	1231.1 ± 1.8	1224.9 ± 1.8	1218.6 ± 1.8	1212.8 ± 1.8	1206.7 ± 1.7
60000 kPa	1257.6 ± 2	1251.9 ± 2	1245.6 ± 2	1239.4 ± 1.9	1233.2 ± 1.9	1227 ± 1.9	1220.7 ± 1.8	1215.1 ± 1.8	1208.9 ± 1.8
65000 kPa	1259.4 ± 2.1	1253.8 ± 2	1247.5 ± 2	1241.3 ± 2	1235.1 ± 1.9	1229.1 ± 1.9	1222.9 ± 1.9	1216.9 ± 1.9	1211.2 ± 1.8
70000 kPa	1261.3 ± 2.1	1255.5 ± 2.1	1249.4 ± 2.1	1243.4 ± 2	1237.2 ± 2	1231 ± 2	1225 ± 1.9	1219 ± 1.9	1213.2 ± 1.9
75000 kPa	1263.2 ± 2.2	1257.4 ± 2.2	1251.3 ± 2.1	1245.2 ± 2.1	1239.2 ± 2.1	1233 ± 2	1227 ± 2	1221.1 ± 2	1215.3 ± 1.9
80000 kPa	1264.9 ± 2.2	1259.1 ± 2.2	1253.1 ± 2.2	1247 ± 2.2	1241 ± 2.1	1235.1 ± 2.1	1229.1 ± 2.1	1223.1 ± 2	1217.3 ± 2
85000 kPa	1266.6 ± 2.3	1261 ± 2.3	1254.8 ± 2.2	1248.9 ± 2.2	1242.9 ± 2.2	1236.9 ± 2.1	1231 ± 2.1	1225.2 ± 2.1	1219.3 ± 2
90000 kPa	1268.4 ± 2.4	1262.6 ± 2.3	1256.7 ± 2.3	1250.6 ± 2.3	1244.8 ± 2.2	1238.9 ± 2.2	1232.8 ± 2.2	1227.1 ± 2.1	1221.4 ± 2.1
95000 kPa	1270.1 ± 2.4	1264.4 ± 2.4	1258.5 ± 2.4	1252.5 ± 2.3	1246.5 ± 2.3	1240.7 ± 2.3	1234.8 ± 2.2	1229.1 ± 2.2	1223.3 ± 2.2
